Source: patent publication US12399427B2, “Photobase generator, compound, photoreactive composition and reaction product” (Tokyo University of Science Foundation, priority 2019, dated 2025)

Columns and labels:
[1] = Behavior of compound in methanol under light irradiation with wavelength of 313 nm or 365 nm (absorbance; Test Examples 1, 2, 8, 9); format: physicochemical; conditions: 2.0×10^−5 mol/L; for molar absorption coefficient ε313: 313 nm; for molar absorption coefficient ε365: 365 nm
Procedure: (§1) The compound (1)-1 obtained above was dissolved in methanol so as to have a concentration of 2.0×10^−5 mol/L. Then, using a mercury xenon lamp, the illuminance was set to 5 mW/cm^2, the exposure doses were set to 0, 10, 30, 60 and 100 mJ/cm^2, and the obtained methanol solution was irradiated with light having a wavelength of 313 nm. Then, the absorbance of the compound (1)-1 was measured.
as §1, with “using an LED” for “using a mercury xenon”, “to 10” for “to 5”, “of 365” for “of 313”
as §1, with “compound (1)-2” for “compound (1)-1”, “to 10” for “to 5”, “0,” for “0, 10,”, “30, 100, 200” for “30, 60”, “and 300” for “and 100”
The compound (1)-2 obtained above was dissolved in methanol so as to have a concentration of 2.0×10^−5 mol/L. Then, using an LED lamp, the illuminance was set to 10 mW/cm^2, the exposure doses were set to 0, 30, 100, 200 and 300 mJ/cm^2, and the obtained methanol solution was irradiated with light having a wavelength of 365 nm. Then, the absorbance of the compound (1)-2 was measured.

[2] = Solubility of the compound in solvents (amount of solvent required to dissolve 10 mg); format: physicochemical
Procedure: Moreover, the solubility of the compound (1)-1 in the solvent was confirmed. Specifically, the amount of the solvent required to dissolve 10 mg of the compound (1)-1 was confirmed for each solvent. The amount of the solvent required was from 1 mL to 5 mL when tetrahydrofuran or acetone was used, and 1 mL or less when cyclopentanone, methanol or dimethyl sulfoxide was used.

[3] = Production of reaction product using photoreactive composition including compound (2) (Test Example 12); conditions: 365 nm, up to 10000 mJ/cm^2, post-bake 160° C. 20 minutes
Procedure: Polyglycidylmethyl acrylate (PGMA, 0.1 g, molecular weight; 22000) showing the structure above, the compound (2) (0.005 g) and tetrahydrofuran (1 g) were blended and stirred at 25° C. for 1 minute to obtain a photoreactive composition.
The photoreactive compositions obtained above was applied onto a silicon wafer by a spin coating method under the conditions of 1500 rpm and 30 seconds. Next, after heating (pre-baking) this coating film (photoreactive composition layer) at 100° C. for 1 minutes, using a Hg—Xe lamp, the coating film was irradiated with light having a wavelength of 365 nm with an illuminance of 50 mW/cm^2 and the exposure doses of 0 mJ/cm^2 to 10000 mJ/cm^2. After light irradiation, the coating film was heated (post-baked) 160° C. for 20 minutes. The coating film after heated was developed with tetrahydrofuran for 30 seconds, and then the ratio of the thickness of the coating film after development to the coating film before light irradiation was measured.

Row | SMILES | molar absorption coefficient ε313 [1] [L/mol/cm] | molar absorption coefficient ε365 [1] [L/mol/cm] | amount of the solvent required to dissolve 10 mg ([2]; cyclopentanone) [mL] | amount of the solvent required to dissolve 10 mg ([2]; dimethyl sulfoxide) [mL] | amount of the solvent required to dissolve 10 mg ([2]; methanol) [mL] | production of an insolubilized reaction product [3]
1 | O=C(/C=C/c1ccccc1O)Nc1ccncc1 [compound (1)-1] | 23000 | 6900 | ≤ 1 | ≤ 1 | ≤ 1 | 
2 | CN(C(=O)/C=C/c1ccccc1O)c1ccncc1 [compound (1)-2] | 13000 | 3200 |  |  |  | 
3 | O=C(/C=C/c1ccccc1O)NC1CCCCC1 [compound (2)] |  |  |  |  |  | could not be produced
